In patent US10470991B2, “(R)-N-(adamantyl-2-yl)pyrrolidine-2-carboxamide derivatives for cosmetic use” (DSM IP ASSETS B.V., priority 2015, dated 2019):
Counter-ions that a name gives are not always drawn.

Legend:
11β-HSD1 [1] = target: T1, 11β-HSD1 (Homo sapiens, UniProt P28845); test: Inhibition of 11-beta-hydroxysteroid dehydrogenase type 1, activity assay in cell lysates (HEK-293 HHH7 clone, radiolabeled cortisone, TLC); type: biochemical; design: expressed in transfected cells; host or cells: HEK-293 (HHH7 clone), used as cell lysate; settings: inhibitor 300 nM, 10 min 37° C.
T1 sequence (P28845 whole entry): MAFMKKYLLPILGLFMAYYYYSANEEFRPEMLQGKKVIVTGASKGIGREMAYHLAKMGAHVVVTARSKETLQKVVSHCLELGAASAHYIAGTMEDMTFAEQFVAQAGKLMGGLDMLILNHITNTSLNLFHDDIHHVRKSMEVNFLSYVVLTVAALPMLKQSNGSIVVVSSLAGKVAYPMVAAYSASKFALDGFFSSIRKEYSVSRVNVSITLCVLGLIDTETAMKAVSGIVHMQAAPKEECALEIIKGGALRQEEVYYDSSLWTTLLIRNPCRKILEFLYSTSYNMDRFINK
Protocol: The cells were then washed with phosphate-buffered saline, and centrifuged for 4 min at 150×g. After removal of the supernatants, cell pellets were snap frozen on dry ice and stored at −80° C. until further use.
Cell lysates were incubated for 10 min at 37° C. in TS2 buffer (100 mM NaCl, 1 mM EGTA, 1 mM EDTA, 1 mM MgCl2, 250 mM sucrose, 20 mM Tris-HCl, pH 7.4) in a final volume of 22.2 μL containing either solvent (0.1% DMSO) or the inhibitor at the respective concentration as indicated in table 3-1.
Reactions were stopped after 10 min by adding an excess of unlabeled cortisone and cortisol (1:1, 2 mM, in methanol). The steroids were separated by TLC, using methanol-chloroform (1:9) as solvent, followed by scintillation counting and calculation of substrate concentration.

[2] = tested on: Human skin from abdominal plastic surgery; test: Total dermal collagen after cortisone and cortisone/inhibitor treatment (human skin samples in culture, Picrosirius Red staining); type: cell-based; settings: for Dermal collagen (score, untreated sample set to 100%): topical daily
Protocol: Human skin from abdominal plastic surgery was used. The skin samples were cut in pieces of ˜8×3 mm (Ø×thickness) and cultured up to day 6 in an air-liquid interface in a perforated ring of stainless steel in contact with a culture medium (modified Williams'E medium), while renewing the culture medium on day 3. Six skin specimens were used for each test sample. Each test sample (4 μl) was applied topically on top of each piece after cleaning of the surface with a cotton pad, which was subsequently covered with a 6 Ø mm delivery membrane, this procedure was repeated daily. After 6 days skin sections were stained with Picrosirius Red histochemical staining, that dyes collagen fibers in purple-red. The papillary dermis was selected for the analysis. The different colors of the pictures were separated by using a deconvolution matrix. After deconvolution only pink-reddish images are used. Within these images the evaluation of dermal collagen was performed by estimating both color intensity and distribution with IMAGE J (NIH) analysis software. Two slides of each skin sample were processed by image acquisition and related analysis (i.e. 12 images for each treatment).

11β-HSD1 [3] = target: T1, 11β-HSD1; test: Human keratinocytes assay: 11β-HSD1 activity (cortisol level in supernatant after cortisone treatment); type: cell-based; design: Primary human skin keratinocytes obtained from CellNTec advanced Cell Systems; host or cells: primary human skin keratinocytes; settings: 1000 nM cortisone, 48 h, primary human keratinocytes
Protocol: Cell Culture: Primary human skin keratinocytes obtained from CellNTec advanced Cell Systems were maintained in CnT-PR medium at 37° C. in a humidified 5% CO2-air atmosphere. Cells were subcultured before reaching confluence.
Assessment of 11β-HSD1 Activity: Human primary keratinocytes were pre-cultured in complete culture media (CnT-PR, CellNTec) to 90% of confluence. Subsequently cells were washed twice with PBS-buffer to remove remaining corticosteroids and media were exchanged to custom made hydrocortisone-free media. 48 h later cell culture supernatant was collected and cortisol levels were assessed with the Cortisol Parameter Assay Kit (R&D Systems) following the instructions of the protocol and using a Multiskan Ascent plate reader (Labsystems).
Calculation: % remaining 11β-HSD1 activity=(cortisol-level with inhibitor/cortisol-level without inhibitor)*100%

| Compound | 11β-HSD1 Remaining activity [% of control] (11β-HSD1 [1]) | remaining 11β-HSD1 activity (11β-HSD1 [3]; 3.16 nM inhibitor) [%] | remaining 11β-HSD1 activity (11β-HSD1 [3]; 10.00 nM inhibitor) [%] | remaining 11β-HSD1 activity (11β-HSD1 [3]; 31.62 nM inhibitor) [%] | remaining 11β-HSD1 activity (11β-HSD1 [3]; 100.00 nM inhibitor) [%] | remaining 11β-HSD1 activity (11β-HSD1 [3]; 316.20 nM inhibitor) [%] | remaining 11β-HSD1 activity (11β-HSD1 [3]; 1000.00 nM inhibitor) [%] | further results |
| --- | --- | --- | --- | --- | --- | --- | --- | --- |
| CC(=O)N[C@@H](Cc1ccc(C#N)cc1)C(=O)N1CCC[C@@H]1C(=O)NC1C2CC3CC(C2)CC1C3 (stereo partly drawn) [(I-l), (R)-1-((S)-2-acetamido-3-(4-cyanophenyl)-propanoyl)-N-(adamantan-2-yl)pyrrolidine-2-carboxamide] | 24 % of control | 94 | 92 | 76 | 57 | 28 | 12 | Increase versus cortisone (#2) ([2]; 10 μM in DMSO, day 6): +4%; Dermal collagen (score, untreated sample set to 100%) ([2]; 10 μM in DMSO, day 6, cortisone/inhibitor treatment): 80%; Increase versus cortisone (#2) ([2]; 100 μM in DMSO, day 6): +17%; Dermal collagen (score, untreated sample set to 100%) ([2]; 100 μM in DMSO, day 6, cortisone/inhibitor treatment): 90%; Increase versus cortisone (#2) ([2]; 200 μM in DMSO, day 6): +24%; Dermal collagen (score, untreated sample set to 100%) ([2]; 200 μM in DMSO, day 6, cortisone/inhibitor treatment): 96% |
| CCOc1ccc(C[C@H](N)C(=O)N2CCC[C@@H]2C(=O)NC2C3CC4CC(C3)CC2C4)cc1 (stereo partly drawn) [(I-k), (R)-N-(adamantan-2-yl)-1-((S)-2-amino-3-(4-ethoxyphenyl)propanoyl)pyrrolidine-2-carboxamide trifluoroacetate] | 41 % of control | 95 | 100 | 89 | 80 | 58 | 36 | – |
| C[C@]12CCC(=O)C=C1CC[C@@H]1[C@@H]2C(=O)C[C@@]2(C)[C@H]1CC[C@]2(O)C(=O)CO [cortisone, reference compound] | – | – | – | – | – | – | – | Dermal collagen (score, untreated sample set to 100%) ([2]; cortisone 0.1 μM in DMSO alone, day 6, positive control for collagen inhibition): 77% |
| CC(=O)N[C@@H](Cc1ccc(F)cc1)C(=O)N1CCC[C@@H]1C(=O)NC1C2CC3CC(C2)CC1C3 (stereo partly drawn) [(I-h), (R)-1-((S)-2-acetamido-3-(4-fluorophenyl)propanoyl)-N-(adamantan-2-yl)-pyrrolidine-2-carboxamide] | 37 % of control | 100 | 106 | 89 | 78 | 52 | 25 | – |

The next lines start with results.

| 11β-HSD1 Remaining activity [% of control] (11β-HSD1 [1]) | remaining 11β-HSD1 activity (11β-HSD1 [3]; 3.16 nM inhibitor) [%] | remaining 11β-HSD1 activity (11β-HSD1 [3]; 10.00 nM inhibitor) [%] | remaining 11β-HSD1 activity (11β-HSD1 [3]; 31.62 nM inhibitor) [%] | remaining 11β-HSD1 activity (11β-HSD1 [3]; 100.00 nM inhibitor) [%] | remaining 11β-HSD1 activity (11β-HSD1 [3]; 316.20 nM inhibitor) [%] | remaining 11β-HSD1 activity (11β-HSD1 [3]; 1000.00 nM inhibitor) [%] | Compound | further results |
| --- | --- | --- | --- | --- | --- | --- | --- | --- |
| 57 % of control | – | – | – | – | – | – | C[C@H](NC(=O)CN)C(=O)NCCN1CCC[C@@H]1C(=O)NC1C2CC3CC(C2)CC1C3 (stereo partly drawn) [(I-p), (R)-N-(adamantan-2-yl)-1-(2-((S)-2-(2-aminoacetamido)propanamido)ethyl)pyrrolidine-2-carboxamide bistrifluoroacetate] | – |
| 43 % of control | – | – | – | – | – | – | C[C@H](N)C(=O)NCC(=O)NCCN1CCC[C@@H]1C(=O)NC1C2CC3CC(C2)CC1C3 (stereo partly drawn) [(I-o), (R)-N-(adamantan-2-yl)-1-(2-(2-((S)-2-aminopropanamido)acetamido)ethyl)pyrrolidine-2-carboxamide bistrifluoroacetate] | – |
| 69 % of control | – | – | – | – | – | – | NCC(=O)N[C@@H](Cc1c[nH]c2ccccc12)C(=O)N1CCC[C@@H]1C(=O)NC1C2CC3CC(C2)CC1C3 (stereo partly drawn) [(I-q), (R)-N-(adamantan-2-yl)-1-(glycyl-L-tryptophyl)pyrrolidine-2-carboxamide trifluoroacetate] | – |
